This is an account of results in patent US12324794B2, “Method to alleviate the symptoms of PMS” (priority 2016, dated 2025).

In data set [1] the test system is women with PMS. In words: Randomized, double-blinded, placebo controlled cross-over trial for PMS emotional symptoms (Example 7). It counts as in vivo, human. Particulars: 200 mg oxaloacetate per day, approx. 28 days, 26 women. The protocol:
A randomized, double blinded placebo-controlled crossover trial was conducted using 200 mg oxaloacetate per day as the active ingredient, and rice flour as the placebo ingredient. An Institutional Review Board (IRB) has approved the clinical plan, and patients have signed the human consent forms. Patients were located from across the United States. Consent forms and survey questionnaires were filled out on-line. The patients and the lead investigator were unaware of which product, Active or Placebo, the patients were receiving. Inclusion Criteria for the trial: • Able to give informed consent and follow instructions per the protocol • Female with history of mood swings, anxiety or depressed mood associated with PMS • Ages 21 to 50 at the start of the study • Not pregnant Exclusion Criteria for the trial: • A formal diagnosis of Major Depression • Previously taken Oxaloacetate as a supplement • Participation in other drug studies or use of other investigational products within 30 days prior to baseline • If unwilling to discontinue use of other nutritional supplements taken for the purpose of PMS modulation during the study • Any unstable or clinically significant condition that would impair the subject's ability to comply with study follow up. • […] of Premenstrual Dysphoric Disorder (PMDD) (a severe form of PMS). After signing the human consent forms, the patient took four different surveys to assess their current emotional state during PMS. • The Beck Depression Inventory modified to examine the week prior to the person's period (21 questions) • The Cohen Perceived Stress form, modified to examine the week prior to the person's period (10 questions). • The Generalized Anxiety Disorder 7-Item Scale modified to examine the week prior to the person's period (7 questions). • The Buss Perry Aggression questionnaire modified to examine the week prior to the person's period (29 questions). The time to fill out the composite 4-survey questionnaire is less than 30 minutes. The questionnaires are filled out on-line and made available to investigator team. […] After a “baseline” 4-survey questionnaire was completed by the women, they would be randomly sent either the Active oxaloacetate compound (200 mg oxaloacetate) or the Placebo (200 mg rice flour). The women would take a daily dose of the compound received, starting with their menstrual period, and continuing daily until the following menstrual period. At that following menstrual period, the women would again complete the 4-survey questionnaire. […] This is a “cross-over” type design. The women take the new product staring on a menstrual period, and continue taking it daily until a following menstrual period. The then again complete the 4-survey questionnaire. In this trial, each woman completed a baseline survey, and a survey after approximately 28 days for oxaloacetate, and a survey after approximately 28 days for rice flour. 26 women completed the study. Half of the women took oxaloacetate first, and the other half took a placebo first. […] P values were calculated using a student's T test, using a two-tailed distribution with paring of the data to the individual.

For data set [2], the system named is women with PMS. The data set is described as follows: Single-blinded, placebo controlled cross-over trial for PMS emotional symptoms (Example 8). The format is in vivo, human. The arrangement: concentration or dose not given beside the values. To be noted: placebo first, oxaloacetate second, 19 women. The text has this: The clinical trial of Example 7 was repeated with 19 women, except that the trial was single blinded. The placebo was sent to all women first, and the oxaloacetate active second. […] This should not have come as a complete surprise to us, as oxaloacetate exerts a beneficial effect on gene expression (movement towards the calorie restriction metabolic state) that can have positive effects for several weeks after discontinuation of the product. To better measure the oxaloacetate effect, therefore, oxaloacetate was given second in this trial. P values were calculated using a student's T test, using a two-tailed distribution with paring of the data to the individual.

In data set [3] the test system is women with PMS. The data set is described as follows: Suicidal Ideation item of Beck's Depression Inventory, Clinical Trials 1 and 2 compiled (Example 9). It counts as in vivo, human. To be noted: 31 women with baseline score above 0, both trials compiled. The text has this: In the clinical trials within Examples 7 and 8, the Beck's Depression Inventory was used. One portion of the Beck's Depression Inventory specifically deals with “Suicidal Ideation” (thoughts about committing suicide). The survey scores the relative severity of suicidal ideation via numerical scoring as follows: • Score Value • 0 I don't have any thoughts of killing myself. • 1 I have thoughts of killing myself, but I would not carry them out. • 2 I would like to kill myself. • 3 I would kill myself if I had the chance. The results of Clinical Trial 1 and 2 were compiled to examine the Suicidal Ideation of the women who participated in this clinical trial. Out of the 45 women in both trials, 31 women experienced a score above 0 in the baseline survey. No women in the completed study who scored 0 in the baseline study increased their suicidal ideation score. In order to examine suicidal ideation statistically, women with a 0 score on their baseline survey were removed from the analysis. P values were calculated using a student's T test, using a two-tailed distribution with paring of the data to the individual.

The conditions of data set [4]: in vivo. From the text:
The dose ratio between toxic and therapeutic effects is the therapeutic index and it can be expressed as the ratio LD50/ED50.

The subject of another data set is women with PMS / PMDD. In words: Case studies of women with PMS or PMDD symptoms (Examples 2-6). It counts as in vivo, human. From the text:
Below are some case studies and a human trial, both of which show significant improvement in symptoms. While acne can be measured by inspection, the other symptoms rely upon the internal feelings of the patient. To measure symptoms that deal with tender breasts, fatigue, difficulty concentrating, diminished impulse control, irritability, anxiety, tension, anger, depression, suicidal thoughts, feeling “out of control”, insomnia, cramping and rapid fluctuations in mood, one skilled in the art must rely on the interpretation of patient. This can be done through an interview with an expert, such as a medical doctor, or through validated survey forms that specifically address these symptoms. Examples of these forms that have been validated by independent clinical trial include: • Buss Perry Aggression Questionnaire (Anger) • Clinical Anger Scale (Anger) • Cohen-Perceived-Stress Scale (Anxiety) • Generalized-Anxiety-Scale (Anxiety) • Generalized Anxiety Disorder 7-item (GAD-7) scale (Anxiety) • Beck's Depression Inventory (Depression) • Center for Epidemiologic Studies Depression Scale (Depression) • Hospital Anxiety and Depression Scale (Anxiety and Depression) • Premenstrual Assessment Form (anger, depression, fatigue and anxiety) • Mood Calendar Tracking (anger, depression, fatigue and anxiety) A person experienced severe anger and depression one day a month, right before their period, every month. […] The cramping was not relieved by Midol or Aspirin. The person was despondent even after their symptoms of PMDD left because of guilt over their behavior during this time period. […] They reported that it was like a 1,000 pound weight being taken off their shoulders. The person in Example 3 continued to take oxaloacetate each month for the next three months and monitored their progress. They took one pill starting about 10 days before their period, and continued taking 1 pill daily until the first sign of PMS, when they increased the dosage to 2 capsules per day until the 2nd day of their period. […] They reported that “I am no longer a suicidal, psychotic crazy person every month. And I know it is the supplements because this will be the 3rd month with no PMDD and that is NOT a coincidence.” A person presented with severe PMDD ever since they were […]. They are now 26. Typically, the patient had to take-off from work 3 days out of each month, and self-seclude, because they could not be with people. […] The improvements with anhydrous enol-oxaloacetate have continued for over 2 years with this patient. A person presented with severe anxiety attacks and fatigue during the week before menstruation.

Data set [5] in a line: Stability / decarboxylation. It counts as physicochemical. From the text: The enol and keto form of oxaloacetic acid are tautomers, and in water form a chemical equilibrium. […] The keto-oxaloacetate decarboxylates quickly to pyruvate. As the keto-oxaloacetate form disappears due to decarboxylation, the enol and hydrated form convert to keto-oxaloacetate, and then also decarboxylate into carbon dioxide and pyruvate, until all the oxaloacetate is consumed. Note that neither of the byproducts of oxaloacetate decarboxylation, carbon dioxide and pyruvate, are effective in treating the symptoms of PMS and PMDD. If there are divalent cations in the fluid, which is very common, the decarboxylation of oxaloacetic acid can happen within a day. […] (See Cash, U.S. Pat. No. 9,050,306). […] Water catalyzes the equilibrium reaction between enol- and keto oxaloacetic acid. Note that only the keto form of oxaloacetic acid decarboxylates into pyruvate and carbon dioxide spontaneously, not the enol-form. There is an energy gap between the enol and keto form which is bridged when the compounds are exposed to water, however, this same energy gap prevents the conversion of the enol to keto form when the product is kept dry. Once there is a conversion to the keto form, decarboxylation can spontaneously occur at temperatures above the freezing point of water. […] Drying effectiveness can be increased by increasing the drying time, drying under vacuum, by using anhydrous washes of isopropyl alcohol or ethyl alcohol to absorb the remaining water (and then evaporating the alcohol), or by performing multiple washes with hexane or non-water soluble solvent to physically remove the water, typically after an alcohol wash. The non-water soluble solvent would then be evaporated off. […] Hexane is a residual solvent in many commercial food preparations including decaffeinated coffee, and is not toxic in small quantities. Alternatively, the final wash can be performed with liquefied propane, liquefied butane, ethyl acetate, ethane, carbon dioxide, or nitrous oxide to reduce the water content.

A short description of data set [6]: Forms of oxaloacetic acid in water. It counts as physicochemical. To be noted: pH 6.9. The protocol:
In some embodiments, the present invention provides methods for treating symptoms of PMS and methods for treating symptoms of PMS and PMDD comprising administration of compositions comprising oxaloacetate. Oxaloacetic acid, when dissolved in water, ionizes to oxaloacetate. The oxaloacetate can be in three forms depending on the pH of the solution. At low pH (<1.5) and low temperature (<4° C.) oxaloacetate hydrates. […] Outside of water solutions, the solid form of oxaloacetic acid is primarily in the enol form. All forms of oxaloacetic acid and the ion oxaloacetate are absorbed by the body. The hydrated form is mostly converted once it enters the higher pH of the body outside of the intestinal tract to the keto and enol form. […] Enol-oxaloacetate is converted to keto-oxaloacetate with the enzyme enol-keto tautomerase, a ubiquitous enzyme throughout the human body. The enol and keto form of oxaloacetic acid are tautomers, and in water form a chemical equilibrium. […] The keto-oxaloacetate decarboxylates quickly to pyruvate. As the keto-oxaloacetate form disappears due to decarboxylation, the enol and hydrated form convert to keto-oxaloacetate, and then also decarboxylate into carbon dioxide and pyruvate, until all the oxaloacetate is consumed. Note that neither of the byproducts of oxaloacetate decarboxylation, carbon dioxide and pyruvate, are effective in treating the symptoms of PMS and PMDD. If there are divalent cations in the fluid, which is very common, the decarboxylation of oxaloacetic acid can happen within a day.

Turning to `O=C(O)CC(=O)C(=O)O` [Oxaloacetate], in the data set on women with PMS [1], the “Beck's Depression Inventory, reduction from Placebo” value worked out at 25.57%; the “Beck's Depression Inventory, reduction from baseline” value came out at 50.88%; the “Buss-Perry Aggression Scale, reduction from Placebo” value was determined as 9.22%; the “Buss-Perry Aggression Scale, reduction from baseline” value is given as 15.10%. For the same molecule, in the data set on women with PMS [1], the “Cohen Perceived Stress, reduction from Placebo” value is recorded as 16.51%; the “Cohen Perceived Stress, reduction from baseline” value was determined as 34.35%; the “Generalized Anxiety Disorder, reduction from Placebo” value turned out to be 28.08%; the “Generalized Anxiety Disorder, reduction from baseline” value is recorded as 49.73%. In the data set with women with PMS [2], the “Beck's Depression Inventory, reduction from Placebo” value turned out to be 37.12%; the “Beck's Depression Inventory, reduction from baseline” value is 54.42%; the “Buss-Perry Aggression Scale, reduction from Placebo” value turned out to be 14.06%; the “Buss-Perry Aggression Scale, reduction from baseline” value is 17.81%. Besides, in the data set on women with PMS [2], the “Cohen Perceived Stress, reduction from Placebo” value came to 24.40%; the “Cohen Perceived Stress, reduction from baseline” value stood at 36.67%; the “Generalized Anxiety Disorder, reduction from Placebo” value is 38.02%; the “Generalized Anxiety Disorder, reduction from baseline” value was determined as 54.23%. Moreover, the “Suicidal Ideation, reduction from Baseline” value with women with PMS [3] is recorded as 47.90%. The LD50 entry in data set [4] is given as “above 5 g/kg of body weight”.
Consider `CC(=O)Oc1ccccc1C(=O)O` [Aspirin, reference compound], for which the “relief of extreme cramping (pain level 10)” value in the data set with women with PMS / PMDD (person with PMDD, history (Example 3)) was “not relieved”.
With `O=C(O)CC(=O)C(=O)O` [anhydrous enol-oxaloacetate, anhydrous enol-oxaloacetic acid], the “fatigue during the week before menstruation” value with women with PMS / PMDD (person, two 100 mg lozenges under the tongue (Example 6)) is reported as “greatly reduced”. Besides, the “time until panic attack subsided” value in the data set on women with PMS / PMDD (person, two 100 mg lozenges under the tongue for 5 minutes (Example 6)) is listed as “less than 5 minutes”. For the same molecule, the “severe premenstrual anger and depression” value with women with PMS / PMDD (person, two capsules of 100 mg on that day (Example 2)) is reported as “reduced in intensity to the point where they could manage the symptoms easily”. Besides, the “stability at room temperature” value in data set [5] (room temperature, kept dry) is given as “exceeding one year”.
Regarding `O=C(O)CC(=O)C(=O)O` [oxaloacetic acid], in data set [6], the “share in the enol form” value turned out to be 11%, the “share in the hydrated form” value stood at 5% and the “share in the keto form” value is 84%. Moreover, in data set [5] (divalent cations in the fluid), the “time to decarboxylation in fluid” value is listed as “within a day”. For the same molecule, in data set [5] (very low pH, temperatures not exceeding 8° C.), the “stability of the hydrated form” value is recorded as “less than one week”.
